In US6878751B1, “Administration of resveratrol to treat inflammatory respiratory disorders” (Imperial College of Science Technology and Medicine, priority 2000, dated 2005):

Assays:
[1] = system: IL-8 release, BEAS-2B cells; experiment: IL-8 release (ELISA) in IL-1β stimulated BEAS-2B cells; assay type: cell-based; conditions: Homo sapiens, 1 ng/ml IL-1β, read-out: EC50 for inhibition of the release of IL-8
Procedure: (§1) The human airway epithelial cell line A549 may be employed to study resveratrol inhibition of the release of IL-8 (interleukin 8) and GM-CSF (granulocyte macrophage-colony stimulating factor) by a 1 ng/ml stimulation with IL-1β (interleukin 1β). A549 cells, BEAS-2B cells and 16HBE-16o^− cells were stimulated with 1 ng/ml levels of IL-1β in the presence of resveratrol.
(§2) Cells, including the A549 cells, were cultured in Dulbecco's modified Eagle's medium (DMEM) 10% (v/v) fetal calf serum (FCS), 100 μg/ml penicillin and 100 μg/ml streptomycin. IL-8 release was measured by commercially available ELISA kit (R&D Systems).

IL-8 release, A549 cells = experiment: IL-8 release (ELISA) in IL-1β stimulated A549 cells; assay type: cell-based; conditions: Homo sapiens, 1 ng/ml IL-1β, read-out: EC50 for inhibition of the release of IL-8
Procedure: as §1, §2

[2] = system: TRE dependent transcription; experiment: TRE (AP-1) luciferase reporter in stably transfected A549 cells; assay type: cell-based, human
Procedure: The expression of inflammatory genes was then evaluated in cells transformed with luciferase reporter genes containing sites for transcription factors (Tf, Tfs). The A549 cells were stably transfected by routine methods with luciferase reporters containing the transcription factors NF-κB, TRE (AP-1, TPA responsive element) and CRE (cAMP responsive element). Luciferase activity of cell lysates resuspended in […] cell lysis buffer mixed (40 mml resuspended lysate: 40 mml assay reagent) was measured using the Luciferase Assay System (Promega), with emitted light measured by a Turner DesignsTD-20/20 luminometer (Steptech Instruments Ltd., Stevenage, U.K.)

[3] = system: patients resistant to existing pulmonary steroid therapy; experiment: Resveratrol supplementation vs increasing steroid dose in steroid resistant asthma (Example 7); assay type: in vivo, human; conditions: oral or pulmonary resveratrol added to inhaled steroid
Text: Instead of steroid naive chid asthmatic patients (children are chosen because of the increased gravity of systemic endocrine effects for children, but adults can be analogously studied) selected in Example 6, patients reesistant to existing pulmonary steroid therapy are selected. The study is otherwise analogous to the study in […], except that in the first two groups the oral or inhaled resveratrol supplements the inhaled steroid dose being administered prior to the beginning of the evaluation, while the third group has the dosage of inhaled steroid being administered prior to the study doubled. Alternatively the third group can receive oral prednisone in the appropriate systemic dose. The evaluation is otherwise performed identically to that in Example 6.

[4] = system: Individuals at risk for ILD; experiment: Oral resveratrol for chemoprevention of ILD in individuals at risk (Example 11); assay type: in vivo, human; conditions: 2 to 5 years
Procedure: Resveratrol is evaluated clinically for efficacy in chemoprevention of ILD in smokers. The study is generally patterned after the COPD chemoprevention study (Example 10) with modifications appropriate to the clinical and histopathologic evaluation of ILD, and the references listed in the preceding examples may be applied as appropriate. Individuals at risk with no disease or mild COPD are treated once or more per day with gelatin capsules containing resveratrol. A population of individuals at risk for a specific ILD, such as silicosis can be studied, or several such populations such as sand blasters (silicosis) and coal miners can be studied in parallel The different populations are subdivided into subpopulations: clinically and histopathologically disease free, clinically asymptomatic with histopathologic inflammation and mildly ILD symptomatic, meaning some fibrosis but no pulmonary impairment causing hypoxemia or acidosis. […] Patients are medically monitored for clinical symptoms of ILD throughout the study, including onset of symptoms and frequency and severity thereof. […] Forced expiratory volume (FEV) and forced inspiratory volume (FIV) are also evaluated to measure airway patency as a direct measure of clinical morbidity and to determine correlation the histopathologic and other indicators of clinical disease. […]

Oc1ccc(/C=C/c2cc(O)cc(O)c2)cc1 [Resveratrol, 3,5,4′-trihydroxystilbene]
EC50 [1]: 111 ± 2.9 µM | EC50 (IL-8 release, A549 cells): 72 ± 11 µM | extent of inhibition of TRE dependent transcription [2]: 85% | EC50 ([2]; Homo sapiens, read-out: EC50 for inhibition of TRE dependent transcription): 7 ± 4 µM | systemic side effects compared with doubling steroid dosage [3]: reduced systemic side effects compared with doubling steroid dosage | efficacy as supplement to existing steroid therapy vs doubling inhaled steroid dose ([3]; steroid resistant asthma): as or more effective as supplements to existing steroid therapy for antiinflammatory treatment than doubling inhaled steroid dose | side effects ([4]; oral, relative to those expected from steroid administration): without significant side effects | efficacy in chemoprevention of ILD ([4]; oral, 200, 2000 or 3000 mg/day): effective for chemoprevention of ILD
